We go through two compounds from patent US8367084B2, “Oily base for a cosmetic and cosmetic comprising the same” (Kokyu Alcohol Kogyo Co., Ltd., priority 2009, dated 2013).

Holding throughout (assay type): physicochemical
Data set [1] in a line: Acid value (Cosmetics Raw Material Standard 18). To be noted: ester compound. From the text:
Acid value: determined in accordance with “Cosmetics Raw Material Standard 18, Method for the Determination of an Acid Value”.

Data set [2] in a line: Compatibility of the ester compound with oil agents. Set-up: key to Compatibility: G: the compound exhibits the compatibility with both the hydrocarbon oil and silicone oil; M: the compound exhibits the compatibility with either of the two; B: the compound exhibits the compatibility with neither of the two. The note with it: for Compatibility: 90% by mass ester compound in 10% by mass oil agent, appearance after one week at 25 degrees C.; for compatibility with the oil agents (in words): ester compound. The procedure: Compatibility: The oil agents used were as follows:
Hydrocarbon oil: Squalane (OLIVE SQUALANE from Kokyu Alcohol Kogyo Co., Ltd.)
Silicone oil: Cyclomethicone (DOWCORNING TORAY SH 245 FLUID, trademark, from Dow Corning Toray Co., Ltd.)
In 10% by mass of each oil agent indicated above were dissolved 90% by mass of the ester compound obtained from Preparation Examples and Comparative Preparation Examples in a hot water bath at a temperature of 80 to 90 degrees C. for 60 minutes under stirring. Next, the mixture obtained was cooled to 50 degrees C. under stirring and then placed in a temperature-controlled room at 25 degrees C. The appearance after one week was evaluated visually. The indication of the evaluation results is as follows.

Data set [3] is described as follows: Hydroxyl value (Cosmetics Raw Material Standard 24). To be noted: ester compound; unit assumed. The text has this: Hydroxyl value: determined in accordance with “Cosmetics Raw Material Standard 24, Method for the Determination of a Hydroxyl Value”.
Data set [4] can be described thus: Viscosity by Brookfield Viscometer DV-II+. The note with it: Spindle No. 2, 12 rpm. The procedure: Viscosity: determined by Brookfield Viscometer DV-II+ (Spindle No. 2, 12 rpm, 25 degrees C.).

`CCCCC(CC)C(=O)OCC(COC(=O)C(CC)CCCC)(COC(=O)C(CC)CCCC)COC(=O)C(CC)CCCC` (stereo not shown) [Com. Prep. Ex. 2, pentaerythrityl tetraethylhexanoate] returned an Acid value in data set [1] of 0.02. Also, in data set [2], the Compatibility result is “M” and the “compatibility with the oil agents (in words)” value is on record as “not good”. In data set [3], the Hydroxyl value worked out at 1.25 mg KOH/g. In data set [4], the “Viscosity in mPa · s at 25° C.” value worked out at 109 mPa · s.
For “pentaerythrityl tetraisostearate [Com. Prep. Ex. 3]”, in that order: 0.38, “M”, “not good”, 0.59 mg KOH/g and 290 mPa · s.
